Measurements published in the NIST ThermoML archive (doi:10.1016/j.fluid.2010.06.007).
± gives the expanded uncertainty stated by the source.

Conditions: 298.15 K; 101.33 kPa; Liquid; Vibrating tube method

Row | molar volume [m3/mol] | SMILES
1 | 0.0001088 ± 5e-08 | C1CCCCC1 [cyclohexane]
2 | 8.174e-05 ± 4e-08 | C1CCOC1 [tetrahydrofuran]
3 | 8.071e-05 ± 4e-08 | ClC(Cl)Cl [trichloromethane]
